{
  "source": "patent US11845770B2",
  "about": "“Ascaroside derivatives and methods of use” (California Institute of Technology, priority 2019, dated 2023)",
  "key": {"[1]": {"test_system": "EPC2 human esophageal keratinocytes", "assay": "Stimulation of EPC2-hTERT human esophageal keratinocytes with Poly(I:C)", "format": "cell-based", "settings": "24 hours, increasing concentrations", "protocol": "EPC2-hTERT (EPC2) cells were maintained in supplemented keratinocyte serum-free medium (KSFM) with 0.09 mM calcium chloride containing epidermal growth factor (5 ng/mL), bovine pituitary extract ([…]), penicillin (100 units/mL), and streptomycin ([…]) (ThermoFisher #17005042) at 37° C. with 5% (v/v) CO2. EPC2 cells were seeded in 12-well plates at 0.55×10^6 cells per well in supplemented KSFM at 37° C. with 5% (v/v) CO2 and after 6 hours the old media is removed and changed with fresh media. After overnight incubation, the old media is changed to supplemented KSFM containing 1.8 mM calcium chloride and incubated for 72 hours at 37° C. with 5% (v/v) CO2. After the old media is removed and fresh supplemented KSFM containing 1.8 mM calcium chloride is added, the cells are pre-treated with different concentrations of compounds (0, 1, 10, 100, 500, 1000 μM) for 1 hour prior to stimulation. To stimulate the cells, Poly (I:C) (Tocris #4287) is added to the wells at […] concentration without removing the media and incubated for 24 hours at 37° C. with 5% (v/v) CO2. Supernatants are collected in Eppendorf tubes, centrifuged in a microfuge at maximum speed for 10 minutes at 4° C., and the centrifuged supernatants stored at −80° C. until quantitative detection assays are performed. Human Interleukin-6 (IL-6), Monocyte Chemoattractant Protein-1 (MCP-1), and Thymic stromal lymphopoietin (TSLP) released from supernatants collected post stimulation were measured using the AlphaLISA detection kit for human IL-6, MCP-1, and TSLP, respectively."}, "human naïve T cells": {"test_system": "human naïve T cells", "assay": "Stimulation of blood derived naïve T cells with Der p1 (house dust mite) antigen", "format": "cell-based", "settings": "human naïve T cells, Der p1 antigen 5 days; 0.1-100 μM; FIG. 14", "protocol": "Naïve T cells from peripheral blood samples were collected and processed using MACSxpress® Whole Blood Pan T Cell Isolation Kit (Miltenyi Biotec), according to the manufacturer's protocol. Isolated naïve T cells were cultured in RPMI medium supplemented with 5% Fetal Bovine Serum (FBS) at 37° C. with 5% (v/v) CO2. T cells were seeded in 24 well plates at a density of 0.5×10^6 cells per well. The cells were pre-treated with the compounds (0, 0.1, 1.0, 10, 100 μM) for 1 hour prior to stimulation. Cells were stimulated with […] of Dermatophagoides pteronyssinus (Der p1) antigen. After 48 hours, fresh […] of Der p1 was added and continued incubating for a further 72 hours at 37° C. with 5% (v/v) CO2. Overall T cells were stimulated with […] of Der p1 antigen for 5 days before supernatants were collected and stored at −80° C. until quantitative detection assays are performed.\nHuman Interleukin-4 (IL-4), Interleukin-5 (IL-5), Interleukin-6 (IL-6), Interleukin-8 (IL-8), Interleukin-13 ([…]), Interleukin-23 (IL-23), and Interferon gamma (IFNγ) released from supernatants collected post stimulation were measured using Human Magnetic Luminex® Assay Kit. Human Transforming Growth Factor beta (TGFβ) was measured using an Enzyme-Linked Immunosorbent Assay (ELISA)-based analysis."}, "CYP1A2": {"molecular_target": "T1, CYP1A2 (Homo sapiens, UniProt P05177)", "T1 construct": "from tissue", "T1 sequence (P05177 1-516)": "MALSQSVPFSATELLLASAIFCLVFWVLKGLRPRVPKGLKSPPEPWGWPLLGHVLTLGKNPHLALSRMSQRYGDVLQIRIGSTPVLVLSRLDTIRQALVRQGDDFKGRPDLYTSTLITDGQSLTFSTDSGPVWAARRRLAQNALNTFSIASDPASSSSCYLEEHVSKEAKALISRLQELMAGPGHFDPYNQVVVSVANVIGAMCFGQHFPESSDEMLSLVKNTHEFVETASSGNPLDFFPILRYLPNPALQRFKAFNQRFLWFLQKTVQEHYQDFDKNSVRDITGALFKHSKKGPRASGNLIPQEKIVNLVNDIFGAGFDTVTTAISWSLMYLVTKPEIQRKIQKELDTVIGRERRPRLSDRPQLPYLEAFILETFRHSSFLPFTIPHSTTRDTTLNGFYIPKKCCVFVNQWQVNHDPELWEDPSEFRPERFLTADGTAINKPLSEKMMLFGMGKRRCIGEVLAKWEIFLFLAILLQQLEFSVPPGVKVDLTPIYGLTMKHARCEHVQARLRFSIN", "assay": "5 in 1 CYP inhibition assay, CYP1A2", "format": "in vitro ADME", "settings": "microsomes, probe phenacetin (O-deethylation), test compound 10 μM, n=2, read-out: inhibition of cytochrome P450 isoform 1A2", "protocol": "CYP450 dependent activities were determined using a marker substrate cocktail. For each reaction, enzyme activities in the presence and absence of test compound (10 μM) were measured in duplicate. A known inhibitor for each isoform, tested at a single concentration (3 μM, n=2), was included as positive control. Incubation mixtures containing microsomes, substrate, and standard inhibitor or test compound were warmed at 37° C. for 10 minutes. Reactions were initiated by addition of the NADPH and incubated for 10 min. [table] After incubation, ice cold acetonitrile was added to terminate the reaction. Generation of metabolites from the substrate reactions was determined by LC-MS/MS."}},
  "note": "Entries after “also recorded” stand apart in the source; their conditions may differ.",
  "data": [
    {"smiles": "C[C@H](CC/C=C/C(=O)OC(C)(C)C)O[C@@H]1O[C@@H](C)[C@H](O)C[C@H]1O", "note": "[Compound 1, tert-butyl (2E,6R)-6-{[(2R,3R,5R,6S)-3,5-dihydroxy-6-methyloxan-2-yl]oxy}hept-2-enoate]", "values": [
      {"measurement": "percent inhibition relative to Stimulated of TSLP expression", "setting": "[1]; FIG. 19A", "value": "statistically significant inhibition; also recorded: robust blocking"},
      {"measurement": "percent inhibition relative to Stimulated of IL-6 expression", "setting": "[1]; FIG. 19B", "value": "inhibited IL-6 expression in statistically significant, dose-dependent manner"},
      {"measurement": "percent inhibition relative to Stimulated of MCP-1 expression", "setting": "[1]; FIG. 19C", "value": "inhibited MCP-1 expression in statistically significant, dose-dependent manner"},
      {"measurement": "percent inhibition relative to Stimulated of IFNγ expression", "setting": "human naïve T cells", "value": "in a statistically significant, dose-dependent manner"},
      {"measurement": "percent inhibition relative to Stimulated of IL-5 expression", "setting": "human naïve T cells", "value": "in a statistically significant, dose-dependent manner"},
      {"measurement": "percent inhibition relative to Stimulated of TGFβ expression", "setting": "human naïve T cells", "value": "in a statistically significant, dose-dependent manner"},
      {"measurement": "inhibition at 10 min, 10 µM", "setting": "CYP1A2", "value": 10.9, "unit": "%"}
    ]},
    {"smiles": "C[C@H](CC/C=C/C(=O)O)O[C@@H]1O[C@@H](C)[C@H](O)C[C@H]1O", "note": "[ascr #7, reference compound]", "values": [
      {"measurement": "percent inhibition relative to Stimulated of IFNγ expression", "setting": "human naïve T cells", "value": "statistically significant, robust blocking"},
      {"measurement": "percent inhibition relative to Stimulated of IL-5 expression", "setting": "human naïve T cells", "value": "dose-dependent inhibition"},
      {"measurement": "percent inhibition relative to Stimulated of TGFβ expression", "setting": "human naïve T cells", "value": "slight attenuation"},
      {"measurement": "inhibition at 10 min, 10 µM", "setting": "CYP1A2", "value": 2.3, "unit": "%"}
    ]}
  ]
}
